Molecular target: T1, PDE4B (Homo sapiens, UniProt Q07343)
T1 construct: active site fragment comprising the amino acids 152-484
Test: PDE4B Scintillation Proximity (SPA) Assay
Type: biochemical
Conditions: PDE4B active site fragment amino acids 152-484; [3H]cAMP; 30° C., one hour; read-out: Experimentally determined IC50-value for PDE4B inhibition
Text: The IC50-values of the compounds of the invention (Examples 1.1 to 1.47) with respect to their PDE4B-inhibiting ability have been determined with a Scintillation Proximity (SPA) Assay (GE Healthcare, No. TRKQ7090). The Scintillation Proximity (SPA) Assay is based on the detection of the different affinities of the cyclic 3′-5′adenosine monophosphate (cAMP, low affinity) and the linear 5′-adenosine monophosphate (AMP, high affinity) to yttrium-silicate-scintillator beads. The cAMP-specific phosphodiesterase (PDE) PDE4B cleaves the 3′-phosphodiester bond of the tritium-labelled-[^3H]cAMP to the [^3H]5′-AMP. This [^3H]5′-AMP associates with the scintillator beads because of their higher affinity and causes scintillations (light flashes) which can be measured in a Wallac Microbeta Scintillation Counter.
10 μl of a [^3H]cAMP-solution (0.05 μCi in H2O, 10-30 Ci/mmol) are added to 89 μl of a PDE4B-enzyme-solution (active site fragment comprising the amino acids 152-484; 0.15-0.18 ng) in assay buffer (50 mM Tris HCl pH 7.5; 8.3 mM MgCl2; 1,7 mM ethylene glyclol tetraacetic acid (EGTA); 0.25 mg/ml bovine serum albumin (BSA)) and this mixture is incubated at 30° C. for one hour
a) without the compound to be tested (in the presence of 1 μl dimethylsulfoxide (DMSO), corresponding to 1% DMSO) and b) in the presence of the compound to be tested in a concentration of 125 μM, 25 μM, 5 μM, 1 μM, 200 nM, 40 nM, 8 nM, 1.6 nM, 0.32 nM, 0.064 nM, 0.0128 nM (dilution series in 5er-steps beginning from 125 μM until 0.0128 nM, in the presence of 1% DMSO).
After this incubation the reaction is stopped by the addition of 50 μl of bead-solution (500 mg beads/35 ml H2O, 18 mM zinc sulfate). In the following 45 minutes the beads have the opportunity to form a sediment. After that the scintillations are measured in the scintillation counter. If the tested compound is able to inhibit the enzymatic activity of the PDE4B-enzyme, less [^3H]AMP depending on the concentration of the tested compound is produced and less scintillations are measurable. […] The IC50-value stands for the compound concentration at which the PDE4B enzyme activity is inhibited to a half maximal value. Therefore the lower the IC50-value is the better is the PDE4B inhibition.

T1 sequence (Q07343 324-656): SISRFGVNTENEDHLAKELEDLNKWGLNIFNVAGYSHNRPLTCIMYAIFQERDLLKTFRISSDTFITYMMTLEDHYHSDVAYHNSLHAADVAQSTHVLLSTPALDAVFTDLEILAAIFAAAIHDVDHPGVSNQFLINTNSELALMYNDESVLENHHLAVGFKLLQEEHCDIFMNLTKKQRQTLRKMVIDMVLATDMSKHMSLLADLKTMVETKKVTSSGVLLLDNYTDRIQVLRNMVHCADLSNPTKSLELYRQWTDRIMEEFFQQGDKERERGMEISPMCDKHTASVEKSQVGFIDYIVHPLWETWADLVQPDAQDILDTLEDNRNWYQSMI

Row | IC50 [nM] | SMILES
1 | 24.2 | CC(C)[C@H](CO)Nc1nc(N2CCC(c3ccc(Cl)cc3)CC2)nc2c1[S+]([O-])CC2 (stereo partly drawn) [Example 1.1, (R)-2-{2-[4-(4-chlorophenyl)-piperidin-1-yl]-5-oxo-6,7-dihydro-5H-5λ^4-thieno[3,2-d]pyrimidin-4-ylamino}-3-methylbutan-1-ol]
2 | 3.4 | [O-][S+]1CCc2nc(N3CCC(c4ccc(Cl)cc4)CC3)nc(NC3(CO)CC3)c21 (stereo not drawn) [Example 1.2, (1-{2-[4-(4-chlorophenyl)-piperidin-1-yl]-5-oxo-6,7-dihydro-5H-5λ^4-thieno[3,2-d]pyrimidin-4-ylamino}-cyclopropyl)-methanol]
3 | 8.3 | CCC[C@H](CO)Nc1nc(N2CCC(c3ccc(Cl)cc3)CC2)nc2c1[S+]([O-])CC2 (stereo partly drawn) [Example 1.3, (R)-2-{2-[4-(4-chlorophenyl)-piperidin-1-yl]-5-oxo-6,7-dihydro-5H-5λ^4-thieno[3,2-d]pyrimidin-4-ylamino}-pentan-1-ol]
4 | 15.3 | CC(C)(O)[C@H](Nc1nc(N2CCC(c3ccc(Cl)cc3)CC2)nc2c1[S+]([O-])CC2)c1ccc(F)cc1 (stereo partly drawn) [Example 1.4, (R)-1-{2-[4-(4-chlorophenyl)-piperidin-1-yl]-5-oxo-6,7-dihydro-5H-5λ^4-thieno[3,2-d]pyrimidin-4-ylamino}-1-(4-fluorophenyl)-2-methylpropan-2-ol]
5 | 0.6 | CN1C[C@@H](Nc2nc(N3CCC(c4ccc(Cl)cc4)CC3)nc3c2[S+]([O-])CC3)CCC1=O (stereo partly drawn) [Example 1.5, (S)-5-{2-[4-(4-chlorophenyl)-piperidin-1-yl]-5-oxo-6,7-dihydro-5H-5λ^4-thieno[3,2-d]pyrimidin-4-ylamino}-1-methylpiperidin-2-one]
6 | 4.7 | [O-][S+]1CCc2nc(N3CCC(c4ccc(Cl)cc4)CC3)nc(NC3CCOCC3)c21 (stereo not drawn) [Example 1.6, {2-[4-(4-chlorophenyl)-piperidin-1-yl]-5-oxo-6,7-dihydro-5H-5λ^4-thieno[3,2-d]pyrimidin-4-yl}-(tetrahydropyran-4-yl)-amine]
7 | > 10000 | CN1C(=O)Nc2ccccc2C12CCN(c1nc3c(c(NC4(CO)CC4)n1)[S+]([O-])CC3)CC2 (stereo not drawn) [Example 1.7, 1-(4-(1-hydroxymethylcyclopropylamino)-5-oxo-6,7-dihydro-5H-5λ^4-thieno[3,2-d]pyrimidin-2-yl)-3′-methyl-1′H-spiro[piperidin-4,4′-quinazolin]-2′(3′H)-one]
8 | 1.9 | [O-][S+]1CCc2nc(N3CCC(c4noc5ccccc45)CC3)nc(NC3(CO)CC3)c21 (stereo not drawn) [Example 1.8, {1-[2-(4-benzo[d]isoxazol-3-yl-piperidin-1-yl)-5-oxo-6,7-dihydro-5H-5λ^4-thieno[3,2-d]pyrimidin-4-ylamino]-cyclopropyl}-methanol]
9 | 53.8 | CCc1[nH]c2ccc(F)cc2c1C1CCN(c2nc3c(c(NC4(CO)CC4)n2)[S+]([O-])CC3)CC1 (stereo not drawn) [Example 1.9, (1-{2-[4-(2-ethyl-5-fluoro-1H-indol-3-yl)-piperidin-1-yl]-5-oxo-6,7-dihydro-5H-5λ^4-thieno[3,2-d]pyrimidin-4-ylamino}-cyclopropyl)-methanol]
10 | 3.5 | CN1C[C@@H](Nc2nc(N3CCC(C#N)(c4ccccc4)CC3)nc3c2[S+]([O-])CC3)CCC1=O (stereo partly drawn) [Example 1.10, 1-[4-((S)-1-methyl-6-oxopiperidin-3-ylamino)-5-oxo-6,7-dihydro-5H-5λ^4-thieno[3,2-d]pyrimidin-2-yl]-4-phenylpiperidin-4-carbonitrile]
11 | > 10000 | CN1C(=O)Nc2ccccc2C12CCN(c1nc3c(c(NC4CCOCC4)n1)[S+]([O-])CC3)CC2 (stereo not drawn) [Example 1.11, 3′-methyl-1-(4-(tetrahydro-2H-pyran-4-ylamino)-5-oxo-6,7-dihydro-5H-5λ^4-thieno[3,2-d]pyrimidin-2-yl)-1′H-spiro[piperidin-4,4′-quinazolin]-2′(3′H)-one]
12 | > 10000 | [O-][S+]1CCc2nc(N3CCC(c4ccncc4)CC3)nc(Nc3cccc(F)c3)c21 (stereo not drawn) [Example 1.12, (3-fluorophenyl)-[5-oxo-2-(3,4,5,6-tetrahydro-2H-[4,4′]bipyridinyl-1-yl)-6,7-dihydro-5H-5λ^4-thieno[3,2-d]pyrimidin-4-yl]-amine]
13 | > 10000 | CCc1[nH]c2ccc(F)cc2c1C1CCN(c2nc3c(c(Nc4cccc(F)c4)n2)[S+]([O-])CC3)CC1 (stereo not drawn) [Example 1.13, {2-[4-(2-ethyl-5-fluoro-1H-indol-3-yl)-piperidin-1-yl]-5-oxo-6,7-dihydro-5H-5λ^4-thieno[3,2-d]pyrimidin-4-yl}-(3-fluorophenyl)-amine]
14 | 16 | [O-][S+]1CCc2nc(N3CCC(c4ccc(F)cc4F)CC3)nc(NC3(CO)CC3)c21 (stereo not drawn) [Example 1.14, (1-{2-[4-(2,4-difluorophenyl)-piperidin-1-yl]-5-oxo-6,7-dihydro-5H-5λ^4-thieno[3,2-d]pyrimidin-4-ylamino}-cyclopropyl)-methanol]
15 | 15.4 | [O-][S+]1CCc2nc(N3CCC(c4ccc(F)cc4F)CC3)nc(NC3CCOCC3)c21 (stereo not drawn) [Example 1.15, {2-[4-(2,4-difluorophenyl)-piperidin-1-yl]-5-oxo-6,7-dihydro-5H-5λ^4-thieno[3,2-d]pyrimidin-4-yl}-(tetrahydropyran-4-yl)-amine]
16 | 0.1 | CN1C[C@@H](Nc2nc(N3CCC(c4nc5ccccc5o4)CC3)nc3c2[S+]([O-])CC3)CCC1=O (stereo partly drawn) [Example 1.16, (S)-5-[2-(4-benzoxazol-2-yl-piperidin-1-yl)-5-oxo-6,7-dihydro-5H-5λ^4-thieno[3,2-d]pyrimidin-4-ylamino]-1-methylpiperidin-2-one]
17 | 2.73 | [O-][S+]1CCc2nc(N3CCC(c4noc5cc(F)ccc45)CC3)nc(NC3(CO)CC3)c21 (stereo not drawn) [Example 1.17, (1-{2-[4-(6-fluorobenzo[d]isoxazol-3-yl)-piperidin-1-yl]-5-oxo-6,7-dihydro-5H-5λ^4-thieno[3,2-d]pyrimidin-4-ylamino}-cyclopropyl)-methanol]
18 | 1.89 | [O-][S+]1CCc2nc(N3CCC(c4noc5ccc(F)cc45)CC3)nc(NC3(CO)CC3)c21 (stereo not drawn) [Example 1.18, (1-{2-[4-(5-fluorobenzo[d]isoxazol-3-yl)-piperidin-1-yl]-5-oxo-6,7-dihydro-5H-5λ^4-thieno[3,2-d]pyrimidin-4-ylamino}-cyclopropyl)-methanol]
19 | 3.46 | [O-][S+]1CCc2nc(N3CCC(c4cc(-c5ccco5)n[nH]4)CC3)nc(NC3CCOCC3)c21 (stereo not drawn) [Example 1.19, {2-[4-(5-furan-2-yl-2H-pyrazol-3-yl)-piperidin-1-yl]-5-oxo-6,7-dihydro-5H-5λ^4-thieno[3,2-d]pyrimidin-4-yl}-(tetrahydropyran-4-yl)-amine]
20 | 2.7 | [O-][S+]1CCc2nc(N3CCC(c4nc(-c5ccncc5)no4)CC3)nc(Nc3cccc(F)c3)c21 (stereo not drawn) [Example 1.20, (3-fluorophenyl)-{5-oxo-2-[4-(3-pyridin-4-yl-[1,2,4]oxadiazol-5-yl)-piperidin-1-yl]-6,7-dihydro-5H-5λ^4-thieno[3,2-d]pyrimidin-4-yl}-amine]
21 | > 10000 | CC(C)[C@H](CO)Nc1nc(N2CCC(c3nc(-c4ccncc4)no3)CC2)nc2c1[S+]([O-])CC2 (stereo partly drawn) [Example 1.21, (R)-3-methyl-2-{5-oxo-2-[4-(3-pyridin-4-yl-[1,2,4]oxadiazol-5-yl)-piperidin-1-yl]-6,7-dihydro-5H-5λ^4-thieno[3,2-d]pyrimidin-4-ylamino}-butan-1-ol]
